Measured values: ChEMBL document CHEMBL1201862, “PubChem BioAssay data set” (2004)
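In this assay, cells in 96-well plates receive the compound at five concentrations for 48 hours. Endpoints are linearly interpolated between the surrounding concentrations. GI50: concentration for 50% inhibition of growth.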 The source made the active and inactive calls. Cut-off read from the data, not from the text of the source: active = GI50 up to about 1.1 µM and inactive = higher.

Columns and labels:
Assay in all cases: inhibition of tumour cell growth, NCI panel, 48 h
NCI-H522 = system: NCI-H522
LOX IMVI = system: LOX IMVI
COLO 205 = system: COLO 205
U-251 = system: U-251
HCC 2998 = system: HCC 2998
CCRF-CEM = system: CCRF-CEM
HCT-15 = system: HCT-15
M14 = system: M14
HT-29 = system: HT-29
SR = system: SR
MDA-MB-231 = system: MDA-MB-231
SK-MEL-2 = system: SK-MEL-2
SN12C = system: SN12C
NCI-H226 = system: NCI-H226
UACC-62 = system: UACC-62
SF-295 = system: SF-295
A549 = system: A549
RXF 393 = system: RXF 393
A498 = system: A498
OVCAR-4 = system: OVCAR-4

SMILES	GI50 (NCI-H522)	GI50 (LOX IMVI)	GI50 (COLO 205)	GI50 (U-251)	GI50 (HCC 2998)	GI50 (CCRF-CEM)	GI50 (HCT-15) [µM]	GI50 (M14)	GI50 (HT-29)	GI50 (SR)	GI50 (MDA-MB-231)	GI50 (SK-MEL-2)	GI50 (SN12C)	GI50 (NCI-H226)	GI50 (UACC-62)	GI50 (SF-295)	GI50 (A549)	GI50 (RXF 393)	GI50 (A498)	GI50 (OVCAR-4)
O=C(/C=C(\O)c1cc(-c2ccccc2)n(-c2ccccc2)n1)c1ccccc1	3.52 µM (inactive)	4.37 µM (inactive)	4.69 µM (inactive)	2.84 µM (inactive)	18.2 µM (inactive)	1.24 µM (inactive)	1.48	6.24 µM (inactive)	3.58 µM (inactive)	1.12 µM (active)	3.49 µM (inactive)	13.4 µM (inactive)	2.56 µM (inactive)	3.38 µM (inactive)	2.99 µM (inactive)	8.17 µM (inactive)	4.4 µM (inactive)	67.6 µM (inactive)	> 100 µM (inactive)	
NC(CCc1ccccc1)(C(=O)O)c1ccccc1 (stereo unspecified)	> 100 µM (inactive)	> 100 µM (inactive)		> 100 µM (inactive)	> 100 µM (inactive)	> 100 µM (inactive)	> 100	> 100 µM (inactive)	> 100 µM (inactive)	> 100 µM (inactive)	> 100 µM (inactive)	> 100 µM (inactive)	> 100 µM (inactive)	> 100 µM (inactive)	> 100 µM (inactive)	> 100 µM (inactive)	> 100 µM (inactive)	> 100 µM (inactive)	> 100 µM (inactive)	> 100 µM (inactive)
CC1(C)N=c2c(ncn2N)=C(C(N)=O)N1	> 100 µM (inactive)	> 100 µM (inactive)	> 100 µM (inactive)	> 100 µM (inactive)	> 100 µM (inactive)	> 100 µM (inactive)	> 100	> 100 µM (inactive)	> 100 µM (inactive)	> 100 µM (inactive)	> 100 µM (inactive)		> 100 µM (inactive)	> 100 µM (inactive)	> 100 µM (inactive)	> 100 µM (inactive)	> 100 µM (inactive)	> 100 µM (inactive)	> 100 µM (inactive)	> 100 µM (inactive)
Cc1cccc2c(N)c3cccc(C(=O)NCC[N+](C)(C)Cc4sccc4[N+](=O)[O-])c3nc12	2.64 µM (inactive)	13.5 µM (inactive)	13.3 µM (inactive)	6.47 µM (inactive)	7.69 µM (inactive)	> 100 µM (inactive)	6.18	13.8 µM (inactive)	3.21 µM (inactive)	0.398 µM (active)	12 µM (inactive)	72.9 µM (inactive)	0.332 µM (active)	6.18 µM (inactive)	13.6 µM (inactive)	2.64 µM (inactive)	0.491 µM (active)	12.9 µM (inactive)	27 µM (inactive)	12.3 µM (inactive)
CCNC(=O)NNc1ncnc2c1c(-c1ccc(Cl)cc1)cn2-c1ccc(C)cc1	17.9 µM (inactive)	17.7 µM (inactive)	15.9 µM (inactive)	17.1 µM (inactive)	17.5 µM (inactive)	20.2 µM (inactive)	20.5	17.7 µM (inactive)	18.3 µM (inactive)	20.2 µM (inactive)	19.6 µM (inactive)	20.4 µM (inactive)	16.5 µM (inactive)	20 µM (inactive)	15.3 µM (inactive)	15.7 µM (inactive)	17.7 µM (inactive)	18.3 µM (inactive)	15.7 µM (inactive)	11.5 µM (inactive)
COC(=O)CC1(CNC(=O)OCc2ccccc2)OCCO1	> 100 µM (inactive)	> 100 µM (inactive)	> 100 µM (inactive)	> 100 µM (inactive)	> 100 µM (inactive)	> 100 µM (inactive)	> 100	> 100 µM (inactive)		> 100 µM (inactive)	> 100 µM (inactive)	> 100 µM (inactive)	> 100 µM (inactive)	> 100 µM (inactive)	> 100 µM (inactive)	> 100 µM (inactive)	> 100 µM (inactive)	> 100 µM (inactive)	> 100 µM (inactive)	> 100 µM (inactive)
CO[C@@H]1[C@@H](OC2OC(C)C(OC3CC(C)(O)C(OC(=O)CC(C)C)C(C)O3)C(N(C)C)C2O)[C@@H](CC=O)C[C@@H](C)C(=O)/C=C/C2O[C@H]2C[C@@H](C)OC(=O)C[C@H]1OC(C)=O (stereo partly specified)	16.6 µM (inactive)	15.8 µM (inactive)	12.9 µM (inactive)	16.4 µM (inactive)	17.7 µM (inactive)	9.77 µM (inactive)	18.6	16.1 µM (inactive)	12.3 µM (inactive)	11.3 µM (inactive)	24.8 µM (inactive)	18.8 µM (inactive)	15.4 µM (inactive)	13 µM (inactive)	21.4 µM (inactive)	24.7 µM (inactive)	32 µM (inactive)	20.7 µM (inactive)	23 µM (inactive)	15.2 µM (inactive)
